Source: patent EP4813376A1, “PHARMACEUTICAL COMPOSITION FOR PREVENTION OR TREATMENT OF BREAST CANCER” (Astrion Inc., priority 2023, dated 2025)

Experiments:
MDA-MB-231 cells [1] = assay: CCK assay, proliferation of breast cancer cells; type: cell-based, human; details: MDA-MB-231, 0.1 to 16 µM, 48 hours, absorbance at 450 nm, FIG. 1
Method: Human breast cancer cell line MDA-MB-231 cells were plated in a 96-well plate at a density of 1 x 10^5 cells/well and cultured for 24 hours. Thereafter, the cells were treated with compound AON-MG23 of the present invention at various concentrations and cultured for 48 hours. The cells were treated with the compound of the present invention at various concentrations of 0 µM, 0.1 µM, 0.25 µM, 0.5 µM, 1 µM, 2 µM, 4 µM, 8 µM, and 16 µM. 10 µL of cell counting kit (CCK) reagent was added and allowed to react for one hour, and then the absorbance was measured at 450 nm.

[2] = tested on: six breast cancer cell lines (SUM149, BCX010, BT20, MDA-MB-231-LM3, CAL51, PyMT-N); assay: colony formation test; type: cell-based, human; details: 0.25 µM, 0.5 µM and 1 µM, 11 to 14 days, all six cell lines, FIGS. 2A to 2C
Method: To confirm the proliferation inhibitory effect of the compound of the present invention on breast cancer cells, a colony formation test was conducted. Specifically, six breast cancer cell lines (SUM149, BCX010, BT20, MDA-MB-231-LM3, CAL51, PyMT-N) were plated in a 6-well cell culture plate at a density of 250 or 1,000 cells per well. On the next day, the cell culture medium was removed and replaced with a cell culture medium containing compound AON-MG23 of the present invention at concentrations of 0 µM, 0.25 µM, 0.5 µM, and 1 µM. After culturing the cells for 11 to 14 days, the resulting cell colonies were stained and photographed, and then the cell colonies were counted and analyzed using Image J software.

[3] = tested on: four breast cancer cell lines (SUM149, BCX010, BT20, MDA-MB-231-LM3); assay: soft agar assay (tumorigenicity); type: cell-based; details: Homo sapiens, 336 h, 100 nM, 500 nM, 1000 nM tested, two weeks, FIGS. 3A and 3B, read-out: concentration from which tumorigenicity was inhibited
Method: To confirm the tumorigenicity inhibitory effect of the compound of the present invention on breast cancer cells, an […] soft agar assay was performed. Specifically, 0.5% agar or 0.7% agar was added to cell culture media diluted with the compound of the present invention at concentrations of 0 nM, 100 nM, 500 nM, and 1000 nM. 2 ml of 0.5% agar containing the compound of the present invention at various concentrations was added to a 6-well cell culture plate and solidified at room temperature. Thereafter, 1 ml of 1 x 10^4 cells of four breast cancer cell lines (SUM149, BCX010, BT20, MDA-MB-231-LM3) and 1 ml of 0.7% agar containing the compound of the present invention at various concentrations were mixed in a 1:1 ratio to prepare a 0.35% solution, and 2 ml of this solution was placed on top of the solidified 0.5% agar. The mixture was then solidified at room temperature until the upper layer was fixed, and then cells were cultured in an incubator at 37 °C and 5% CO2 for two weeks. The formed cell clones were stained and photographed, and then the cell clones were counted and analyzed using Image J software.

MDA-MB-231 cells [4] = assay: cell migration assay in SPLScar Block plates; type: cell-based; details: Homo sapiens, 24 hours, FIG. 4, read-out: inhibition of migration of MDA-MB-231 cells compared to the control group
Method: Human breast cancer cell line MDA-MB-231 cells were seeded in SPLScar Block plates (SPL LIFE SCIENCES) at a density of 7 x 10^4/well and cultured for 24 hours. […], the blocks were removed, and at the same time, compound AON-MG23 of the present invention was applied at various concentrations. Thereafter, cells were cultured in a CO2 incubator at 37 °C for 24 hours. The cells were treated with the compound of the present invention at various concentrations of 0 µM, 0.5 µM, 1 µM, 2 µM, and 4 µM. Photographs were taken before and after each culture, and the migration distance of the cells was measured using Image J software. Based on the results, the inhibition of the cell migration was analyzed.

MDA-MG231-LM3 cells = assay: Transwell membrane filter migration assay; type: cell-based, human; details: cells pre-treated with 0.5 µM, eight hours, FIG. 6
Method: Breast cancer cell line MDA-MG231-LM3 cells pre-treated with 0.5 µM of compound AON-MG23 of the present invention and cells that were not treated were prepared. […] The membrane filter seeded with the cells was placed into a 24-well plate supplemented with a cell culture medium containing fetal bovine serum and cultured for eight hours in an incubator at 37°C and 5% CO2. Cells that migrated to the bottom surface of the membrane filter were stained and photographed under a microscope, and counted and analyzed using Image J software.

MDA MB-231 cells = assay: Matrigel invasion assay (Transwell invasion chamber), 20 hours; type: cell-based, human; details: 0.5, 1, 2, 4 µM, FIG. 7
Method: Human breast cancer cell line MDA MB-231 cells were seeded at a density of 6 x 10^4 cells/well on top of a filter coated with Matrigel (Transwell invasion chamber, Corning), treated with compound AON-MG23 of the present invention (0, 0.5, 1, 2, 4 µM), and cultured in a CO2 in an incubator at 37 °C for 20 hours. After culture, cell fixation and staining were performed using the Diff-Quick stain Kit (Sysmex, Kobe, Japan). The stained cells were imaged under a microscope, and the cells were counted and statistically analyzed using Image J software.

MDA-MB-231 = assay: Matrigel invasion assay (Transwell membrane insert), 24 hours; type: cell-based, human; details: 0.5 µM and 1 µM, reduction dependent on concentration, FIG. 8
Method: Breast cancer cell line MDA-MB-231 was seeded at a density of 6 x 10^4 cells/well on top of a membrane filter coated with Matrigel(Transwell membrane insert, Corning). Thereafter, the cells were treated with compound AON-MG23 of the present invention at concentrations of 0 µM (DMSO), 0.5 µM, and 1 µM, and cultured in a CO2 incubator at 37 °C for 24 hours. After 24 hours of culture, the cells on the bottom surface of the membrane filter were stained and photographed under a microscope, and counted and analyzed using Image J software.

HCC1806 = assay: SRB assay with Bliss synergy scoring, combination with paclitaxel; type: cell-based, human; details: AON-MG23 combined with paclitaxel, HCC1806, five days co-treatment, score > 0 indicates a synergistic effect, FIG. 10B
Method: (§1) The combination effect of compound AON-MG23 of the present invention was confirmed using Bliss scoring based on the results of the sulforhodamine B assay (SRB assay). Specifically, human breast cancer cell lines SUM149 and HCC1806 were plated in a 96-well cell culture plate at a density of 1 x 10^3 cells/well. On the next day, paclitaxel, the drug to be tested for the combination effect with compound AON-MG23 of the present invention, was diluted to concentrations for testing, and cells were cultured for 24 hours. After carefully removing the cell culture medium, the cells were co-treated with AON-MG23 and paclitaxel at different concentrations and cultured for five days. […] The absorbance of the dissolved solution was measured at […] using a plate reader. The measured absorbance values were compared to the control group, converted into percentages, and saved in an Excel file format. […] The presence of a synergistic effect was evaluated according to the following criteria based on relevant literature (Bliss, C. I. (1939). The toxicity of poisons applied jointly. Annals of Applied Biology, 26(3), 585-615.): a score > 0 indicates a synergistic effect; a score = 0 indicates an independent effect; and a score < 0 indicates an antagonistic effect.

SUM149 = assay: as above; type: cell-based, human; details: AON-MG23 combined with paclitaxel, SUM149, five days co-treatment, score > 0 indicates a synergistic effect, FIG. 10A
Method: as §1

Structure (SMILES): COc1cc(N2CCC(N(C)C)CC2)ccc1Nc1ncc(Cl)c(Nc2ccccc2N(C2CC2)S(C)(=O)=O)n1 [AON-MG23, N-(2-((5-chloro-2-((4-(4-(dimethylamino)piperidin-1-yl)-2-methoxyphenyl)amino)pyrimidin-4-yl)amino)phenyl)-N-cyclopropylmethanesulfonamide]
- proliferation of breast cancer cells (MDA-MB-231 cells [1]): inhibited
- cell colony formation [2]: inhibited
- minimal effective concentration [3]: ≥ 0.1 µM
- inhibition at 0.5 µM (MDA-MB-231 cells [4]): 50%
- cell migration compared to the untreated group (MDA-MG231-LM3 cells): inhibited
- degree of penetration into Matrigel compared to the untreated control group (MDA MB-231 cells): reduced degree of penetration into Matrigel
- degree of penetration into Matrigel compared to the untreated control group (MDA-MB-231): reduced degree of penetration into Matrigel
- Bliss synergy scoring (HCC1806): 9.249 points
- Bliss synergy scoring (SUM149): 18.743 points
